Experiments:
Type in all cases: cell-based
[1] = test system: Pseudomonas aeruginosa ATCC 27853; experiment: Minimum Bactericidal Concentration (MBC), P. aeruginosa; conditions: % w/v Ca(OCl)2 in water
Procedure: (§1) Referring now to FIG. 17, the experiments described above for FIG. 14 were also performed with additional foams, one foam in which 1 gram of Calcium hypochlorite salt was infused (D100, shown as left column for each cycle), and one foam in which 2 grams of Calcium hypochlorite salt was dispersed (D200, shown as right column for each cycle). […] As discussed additionally below, the minimum concentration is significant because testing identified concentrations of hypochlorite-ion as low as 0.5-0.7 mM to have effective antibacterial and antimicrobial properties. Additional testing was performed to measure the zone of inhibition (ZOI) and Log Reduction of microbes for various samples of released aqueous solutions having various concentrations of hypochlorite ion, as listed in Tables 2 and 3. Table 2 lists ZOI and Log reduction data for a single cycle measured at hold times (exposure duration) of 30 seconds and 5 minutes of bacterial exposure to solution. Table 3 lists ZOI and Log reduction data for multiple cycles (each cycle including introduction of hypochlorite solution, and removal of solution prior to beginning next cycle). In the ZOI experimentation, foam discs having a diameter of 8 millimeters (mm) and a height of 5 mm were each saturated with hypochlorite-ion solution as indicated. Table 3 also lists the initial microbe count in log form (10^X, where X is listed in Table 2), log reduction in microbe count, and ZOI in mm. For the data of Table 3, the initial concentration (1×) of hypochlorite ion in solution was 5.7 mM of hypochlorite ion, which corresponds to 0.041% w/v of Ca(OCl)^2. In the Log reduction experimentation, the microbes were exposed to the respective concentration of solution for 30 seconds per cycle. […] The bold entries in Table 3 are indicative of substantially all microbes being killed. In the biofilm eradication cycles listed in Table 6 below, probes were cultured with microbes and incubated to permit formation of a biofilm on the probe. […]

[2] = test system: Pseudomonas aeruginosa ATCC 27853; experiment: Minimum Inhibitory Concentration (MIC), P. aeruginosa; conditions: % w/v Ca(OCl)2 in water
[3] = test system: Staphylococcus aureus ATCC 10832; experiment: Minimum Bactericidal Concentration (MBC), S. aureus ATCC 10832; conditions: % w/v Ca(OCl)2 in water
Procedure: as §1

MRSA [4] = experiment: Log reduction, single cycle, MRSA; conditions: for ΔLog - MRSA 30 sec.: 30 sec. exposure; for ΔLog - MRSA 5 min.: 5 min. exposure
Procedure: (§2) Referring now to FIG. 17, the experiments described above for FIG. 14 were also performed with additional foams, one foam in which 1 gram of Calcium hypochlorite salt was infused (D100, shown as left column for each cycle), and one foam in which 2 grams of Calcium hypochlorite salt was dispersed (D200, shown as right column for each cycle). […] As discussed additionally below, the minimum concentration is significant because testing identified concentrations of hypochlorite-ion as low as 0.5-0.7 mM to have effective antibacterial and antimicrobial properties. Additional testing was performed to measure the zone of inhibition (ZOI) and Log Reduction of microbes for various samples of released aqueous solutions having various concentrations of hypochlorite ion, as listed in Tables 2 and 3. Table 2 lists ZOI and Log reduction data for a single cycle measured at hold times (exposure duration) of 30 seconds and 5 minutes of bacterial exposure to solution. Table 3 lists ZOI and Log reduction data for multiple cycles (each cycle including introduction of hypochlorite solution, and removal of solution prior to beginning next cycle). In the ZOI experimentation, foam discs having a diameter of 8 millimeters (mm) and a height of 5 mm were each saturated with hypochlorite-ion solution as indicated. Table 3 also lists the initial microbe count in log form (10^X, where X is listed in Table 2), log reduction in microbe count, and ZOI in mm. For the data of Table 3, the initial concentration (1×) of hypochlorite ion in solution was 5.7 mM of hypochlorite ion, which corresponds to 0.041% w/v of Ca(OCl)^2. In the Log reduction experimentation, the microbes were exposed to the respective concentration of solution for 30 seconds per cycle. […] The bold entries in Table 3 are indicative of substantially all microbes being killed. In the biofilm eradication cycles listed in Table 6 below, probes were cultured with microbes and incubated to permit formation of a biofilm on the probe. The probe was then exposed to solutions having various concentrations of Calcium hypochlorite solution for multiple cycles, with each cycle including exposure of the probe to solution for a duration of 5 minutes.

[5] = test system: Staphylococcus aureus USA 400 (MRSA); experiment: Log reduction, multiple cycles, S. aureus USA 400 (MRSA); conditions: 30 seconds per cycle
Procedure: as §2

[6] = test system: Pseudomonas aeruginosa ATCC 27853; experiment: Log reduction, multiple cycles, P. aeruginosa; conditions: 30 seconds per cycle
Procedure: as §2

[7] = test system: Pseudomonas aeruginosa ATCC 27853; experiment: Minimum Biofilm Eradication Concentration (MBEC), P. aeruginosa; conditions: Pseudomonas aeruginosa ATCC 27853 biofilm on probe, 5 minutes per cycle, % w/v Ca(OCl)2
Procedure: as §1

microbes = experiment: antibacterial and antimicrobial testing of hypochlorite-ion concentrations (summary statements)
Procedure: Referring now to FIG. 17, the experiments described above for FIG. 14 were also performed with additional foams, one foam in which 1 gram of Calcium hypochlorite salt was infused (D100, shown as left column for each cycle), and one foam in which 2 grams of Calcium hypochlorite salt was dispersed (D200, shown as right column for each cycle). […] As discussed additionally below, the minimum concentration is significant because testing identified concentrations of hypochlorite-ion as low as 0.5-0.7 mM to have effective antibacterial and antimicrobial properties. Additional testing was performed to measure the zone of inhibition (ZOI) and Log Reduction of microbes for various samples of released aqueous solutions having various concentrations of hypochlorite ion, as listed in Tables 2 and 3. Table 2 lists ZOI and Log reduction data for a single cycle measured at hold times (exposure duration) of 30 seconds and 5 minutes of bacterial exposure to solution. Table 3 lists ZOI and Log reduction data for multiple cycles (each cycle including introduction of hypochlorite solution, and removal of solution prior to beginning next cycle). In the ZOI experimentation, foam discs having a diameter of 8 millimeters (mm) and a height of 5 mm were each saturated with hypochlorite-ion solution as indicated. […]

C. alb. = experiment: Log reduction, single cycle, C. alb.; conditions: for ΔLog - C. alb. 30 sec.: 30 sec. exposure; for ΔLog - C. alb. 5 min.: 5 min. exposure
Procedure: as §2

[8] = test system: Staphylococcus aureus USA 400 (MRSA); experiment: Minimum Biofilm Eradication Concentration (MBEC), S. aureus USA 400 (MRSA); conditions: Staphylococcus aureus USA 400 (MRSA) biofilm on probe, 5 minutes per cycle, % w/v Ca(OCl)2
Procedure: as §1

MRSA [9] = experiment: zone of inhibition (ZOI), foam discs saturated with solution, MRSA; conditions: 8 mm foam disc saturated with solution
Procedure: as §2

[10] = test system: Staphylococcus aureus USA 400 (MRSA); experiment: Minimum Bactericidal Concentration (MBC), S. aureus USA 400 (MRSA); conditions: % w/v Ca(OCl)2 in water
Procedure: as §1

[11] = test system: Staphylococcus aureus ATCC 10832; experiment: Minimum Inhibitory Concentration (MIC), S. aureus ATCC 10832; conditions: % w/v Ca(OCl)2 in water
[12] = Sample Dilution 1x (5.7 mM hypochlorite ion, 0.041% w/v Ca(OCl)2)
[13] = Sample Dilution 2x of 5.7 mM hypochlorite ion
[14] = Sample Dilution 4x of 5.7 mM hypochlorite ion
[15] = Sample Dilution 8x of 5.7 mM hypochlorite ion (lowest concentration, 0.7 mM)

## hypochlorite ion [OCl^− Solutions]
[1]; 1 Cycle
  Minimum Bactericidal Concentration (MBC) 1 Cycle: <0.005% w/v
[1]; 3 Cycles
  Minimum Bactericidal Concentration (MBC) 3 Cycles: <0.005% w/v
[1]; 5 Cycles
  Minimum Bactericidal Concentration (MBC) 5 Cycles: <0.005% w/v
[2]; 1 Cycle
  Minimum Inhibitory Concentration (MIC) 1 Cycle: <0.005% w/v
[2]; 3 Cycles
  Minimum Inhibitory Concentration (MIC) 3 Cycles: <0.005% w/v
[2]; 5 Cycles
  Minimum Inhibitory Concentration (MIC) 5 Cycles: <0.005% w/v
[3]; 1 Cycle
  Minimum Bactericidal Concentration (MBC) 1 Cycle: <0.005% w/v
[3]; 3 Cycles
  Minimum Bactericidal Concentration (MBC) 3 Cycles: <0.005% w/v
[3]; 5 Cycles
  Minimum Bactericidal Concentration (MBC) 5 Cycles: <0.005% w/v
MRSA [4]; 0.8 mM HOCl/OCl−
  ΔLog - MRSA 30 sec.: 2.96
  ΔLog - MRSA 5 min.: 2.99
MRSA [4]; 1.9 mM HOCl/OCl−
  ΔLog - MRSA 30 sec.: 2.93
  ΔLog - MRSA 5 min.: 4.09
MRSA [4]; 3.1 mM HOCl/OCl−
  ΔLog - MRSA 30 sec.: 3.55
  ΔLog - MRSA 5 min.: >7.13
MRSA [4]; 4.0 mM HOCl/OCl−
  ΔLog - MRSA 30 sec.: 5.52
  ΔLog - MRSA 5 min.: >7.13
MRSA [4]; 10.7 mM HOCl/OCl−
  ΔLog - MRSA 30 sec.: >6.93
  ΔLog - MRSA 5 min.: >7.13
MRSA [4]; 15.7 mM HOCl/OCl−
  ΔLog - MRSA 30 sec.: >6.93
  ΔLog - MRSA 5 min.: >7.13
[5]; [12]
  Log Reduction Staphylococcus aureus USA 400 (MRSA) 1 Cycle: 4.15
  Log Reduction Staphylococcus aureus USA 400 (MRSA) 3 Cycles: 3.63
  Log Reduction Staphylococcus aureus USA 400 (MRSA) 5 Cycles: 3.91
[5]; [13]
  Log Reduction Staphylococcus aureus USA 400 (MRSA) 1 Cycle: 4.15
  Log Reduction Staphylococcus aureus USA 400 (MRSA) 3 Cycles: 3.63
  Log Reduction Staphylococcus aureus USA 400 (MRSA) 5 Cycles: 3.91
[5]; [14]
  Log Reduction Staphylococcus aureus USA 400 (MRSA) 1 Cycle: 4.15
  Log Reduction Staphylococcus aureus USA 400 (MRSA) 3 Cycles: 3.63
  Log Reduction Staphylococcus aureus USA 400 (MRSA) 5 Cycles: 3.91
[5]; [15]
  Log Reduction Staphylococcus aureus USA 400 (MRSA) 1 Cycle: 4.15
  Log Reduction Staphylococcus aureus USA 400 (MRSA) 3 Cycles: 3.63
  Log Reduction Staphylococcus aureus USA 400 (MRSA) 5 Cycles: 3.91
[6]; [12]
  Log Reduction Pseudomonas aeruginosa ATCC 27853 1 Cycle: −0.16
  Log Reduction Pseudomonas aeruginosa ATCC 27853 3 Cycles: 5.87
  Log Reduction Pseudomonas aeruginosa ATCC 27853 5 Cycles: 5.83
[6]; [13]
  Log Reduction Pseudomonas aeruginosa ATCC 27853 1 Cycle: −0.98
  Log Reduction Pseudomonas aeruginosa ATCC 27853 3 Cycles: 5.87
  Log Reduction Pseudomonas aeruginosa ATCC 27853 5 Cycles: 5.83
[6]; [14]
  Log Reduction Pseudomonas aeruginosa ATCC 27853 1 Cycle: −0.48
  Log Reduction Pseudomonas aeruginosa ATCC 27853 3 Cycles: 3.92
  Log Reduction Pseudomonas aeruginosa ATCC 27853 5 Cycles: 5.83
[6]; [15]
  Log Reduction Pseudomonas aeruginosa ATCC 27853 1 Cycle: −1.11
  Log Reduction Pseudomonas aeruginosa ATCC 27853 3 Cycles: 1.26
  Log Reduction Pseudomonas aeruginosa ATCC 27853 5 Cycles: 5.39
[7]; 1 Cycle
  Minimum Biofilm Eradication Concentration (MBEC) 1 Cycle: >0.041% w/v
[7]; 3 Cycles
  Minimum Biofilm Eradication Concentration (MBEC) 3 Cycles: 0.021% w/v
[7]; 5 Cycles
  Minimum Biofilm Eradication Concentration (MBEC) 5 Cycles: 0.041% w/v
microbes
  lowest concentrations identified to have effective antibacterial and antimicrobial properties: 0.5 to 0.7 mM
microbes; five (5) cycles at the lowest concentration (0.7 mM), 30 seconds per cycle
  killing of microbes in Log reduction experimentation: killed substantially all microbes present
C. alb.; 0.8 mM HOCl/OCl−
  ΔLog - C. alb. 30 sec.: 2.87
  ΔLog - C. alb. 5 min.: >7.18
C. alb.; 1.9 mM HOCl/OCl−
  ΔLog - C. alb. 30 sec.: 2.94
  ΔLog - C. alb. 5 min.: 3.77
C. alb.; 3.1 mM HOCl/OCl−
  ΔLog - C. alb. 30 sec.: 3.08
  ΔLog - C. alb. 5 min.: >7.18
C. alb.; 4.0 mM HOCl/OCl−
  ΔLog - C. alb. 30 sec.: 3.94
  ΔLog - C. alb. 5 min.: >7.18
C. alb.; 10.7 mM HOCl/OCl−
  ΔLog - C. alb. 30 sec.: 7.18
  ΔLog - C. alb. 5 min.: >7.18
C. alb.; 15.7 mM HOCl/OCl−
  ΔLog - C. alb. 30 sec.: 3.50
  ΔLog - C. alb. 5 min.: >7.18
[8]; 1 Cycle
  Minimum Biofilm Eradication Concentration (MBEC) 1 Cycle: <0.005% w/v
[8]; 3 Cycles
  Minimum Biofilm Eradication Concentration (MBEC) 3 Cycles: <0.005% w/v
[8]; 5 Cycles
  Minimum Biofilm Eradication Concentration (MBEC) 5 Cycles: <0.005% w/v
MRSA [9]; 0.8 mM HOCl/OCl−
  ZOI, D in mm MRSA: 0.0 mm
MRSA [9]; 1.9 mM HOCl/OCl−
  ZOI, D in mm MRSA: 0.0 mm
MRSA [9]; 3.1 mM HOCl/OCl−
  ZOI, D in mm MRSA: 0.0 mm
MRSA [9]; 4.0 mM HOCl/OCl−
  ZOI, D in mm MRSA: 0.0 mm
MRSA [9]; 10.7 mM HOCl/OCl−
  ZOI, D in mm MRSA: 13.0 mm
MRSA [9]; 15.7 mM HOCl/OCl−
  ZOI, D in mm MRSA: 13.0 mm
[10]; 1 Cycle
  Minimum Bactericidal Concentration (MBC) 1 Cycle: <0.005% w/v
[10]; 3 Cycles
  Minimum Bactericidal Concentration (MBC) 3 Cycles: <0.005% w/v
[10]; 5 Cycles
  Minimum Bactericidal Concentration (MBC) 5 Cycles: <0.005% w/v
[11]; 1 Cycle
  Minimum Inhibitory Concentration (MIC) 1 Cycle: <0.005% w/v
[11]; 3 Cycles
  Minimum Inhibitory Concentration (MIC) 3 Cycles: <0.005% w/v
[11]; 5 Cycles
  Minimum Inhibitory Concentration (MIC) 5 Cycles: <0.005% w/v

Source: patent US11167059B2, “Compositions with reactive ingredients, and wound dressings, apparatuses, and methods” (KCI Licensing, Inc., priority 2010, dated 2021)
